Converted amounts (≈) assume the structure as drawn.

The subject of assay [1] is S. aureus ATCC 29213. As to the kind of experiment: Minimum inhibitory concentration (MIC) assay, broth microdilution, MSSA. The format is cell-based. The conditions noted are these: Staphylococcus aureus, Table I. The procedure:
(§1) The antimicrobial activity of the compounds of the invention may be evaluated by a number of methods, including the following visual minimum inhibitory concentration (MIC) assay. This assay determines the minimum concentration of compound required to inhibit growth of a bacterial strain.
(§2) Whole-cell antibacterial activity is determined by broth microdilution using conditions recommended by the NCCLS (see National Committee for Clinical Laboratory Standards. 2001. Performance standards for antimicrobial susceptibility testing: 11th informational supplement. Vol. 21, no. 1, M100-S11. National Committee for Clinical Laboratory Standards, Wayne, Pa.). Test compounds are dissolved in DMSO and diluted 1:50 in Mueller-Hinton II broth (Becton-Dickinson) to produce a 256 μg/ml stock solution. In a 96-well microtiter plate, the compound solution is serially two-fold diluted in Mueller-Hinton II broth. After the compounds are diluted, a 50 μl aliquot of the test organism (˜1×10^6 cfu/mL) is added to each well of the microtiter plate. The final test concentrations ranges from 0.125-128 μg/mL. Inoculated plates are incubated in ambient air at 37° C. for 18 to 24 hours. The organisms selected for testing included laboratory strains S. aureus ATCC 29213 and E. coli ATCC 25922 (strains purchased from American Type Culture Collection, Manassas, Va.) m, S. aureus FQR700699, and Paeruginosa 27853. The minimum inhibitory concentration (MIC) is determined as the lowest concentration of compound that inhibited visible growth of the test organism.
For orientation: Broth dilution looks for growth in wells or tubes with falling amounts of substance.

Assay [2] deals with fluoroquinolone-resistant S. aureus ATCC 700699. In words: Minimum inhibitory concentration (MIC) assay, broth microdilution, MRSA. Format: cell-based. The conditions noted are these: Staphylococcus aureus; fluoroquinolone-resistant S. aureus ATCC 700699; Table I; read-out: MRSA MIC. The method, then:
as §1, §2

By MIC is commonly meant the smallest concentration in the dilution series that meets the test's criterion for growth inhibition. Regarding `COc1c(N2CC(O)C2)c(F)cc2c(=O)c3c(O)c(C#N)sc3n(C3CC3)c12` [Cmp 24, 9-cyclopropyl-6-fluoro-3-hydroxyl-7-(3-hydroxylazetidin-1-yl)-8-methoxy-4-oxo-4,9-dihydrothieno[2,3-b]quinoline-2-carbonitrile], the minimum inhibitory concentration (MIC) in assay [1] was 0.06 µg/mL (≈ 0.149 µM); in assay [2] it was 1 µg/mL (≈ 2.49 µM).
The corresponding values for `COc1c(N2CCNCC2)c(F)cc2c(=O)c3c(O)c(C(N)=O)sc3n(C3CC3)c12` [Cmp 25, 9-cyclopropyl-6-fluoro-3-hydroxyl-8-methoxy-4-oxo-7-(piperazin-1-yl)-4,9-dihydrothieno[2,3-b]quinoline-2-carboxamide] are 0.25 µg/mL (≈ 0.578 µM) and 2 µg/mL (≈ 4.62 µM).
As to `COc1c(N2CCN(C)CC2)c(F)cc2c(=O)c3c(O)c(C#N)sc3n(C3CC3)c12` [Cmp 26, 9-cyclopropyl-6-fluoro-3-hydroxyl-8-methoxy-7-(4-methylpiperazin-1-yl)-4-oxo-4,9-dihydrothieno[2,3-b] quinoline-2-carbonitrile], the MIC in assay [1] was 0.13 µg/mL (≈ 0.303 µM); in assay [2], 1 µg/mL (≈ 2.33 µM).
Turning to `COc1c(N2C[C@@H]3CCCN[C@@H]3C2)ccc2c(=O)c3c(O)c(C#N)sc3n(C3CC3)c12` [Cmp 27, 9-cyclopropyl-3-hydroxyl-8-methoxy-4-oxo-7-((4aS,7aS)-tetrahydro-1H-pyrrolo[3,4-b]pyridin-6(2H,7H,7aH)-yl)-4,9-dihydrothieno[2,3-b]quinoline-2-carbonitrile], the MIC was determined as 0.5 µg/mL (≈ 1.15 µM) in assay [1] and 8 µg/mL (≈ 18.3 µM) in assay [2].
In the case of `COc1c(N2CCC(N)CC2)c(F)cc2c(=O)c3c(O)c(C#N)sc3n(C3CC3)c12` [Cmp 29, 7-(4-aminopiperidin-1-yl)-9-cyclopropyl-6-fluoro-3-hydroxyl-8-methoxy-4-oxo-4,9-dihydrothieno[2,3-b]quinoline-2-carbonitrile], the figures for the MIC in assay [1] and in assay [2] were 0.03 µg/mL (≈ 0.07 µM) and 0.5 µg/mL (≈ 1.17 µM), respectively.
For `CCN[C@@H](C)[C@@H]1CCN(c2c(F)cc3c(=O)c4c(O)c(C#N)sc4n(C4CC4)c3c2OC)C1` [Cmp 30, 9-cyclopropyl-7-((R)-3-((S)-1-(ethylamino)ethyl)pyrrolidin-1-yl)-6-fluoro-3-hydroxyl-8-methoxy-4-oxo-4,9-dihydrothieno [2,3-b]quinoline-2-carbonitrile], the MIC in assay [1] is 0.03 µg/mL (≈ 0.0638 µM); in assay [2] it was 0.13 µg/mL (≈ 0.276 µM).
Regarding `CN[C@@H](C)[C@@H]1CCN(c2c(F)cc3c(=O)c4c(O)c(C#N)sc4n(C4CC4)c3c2OC)C1` [Cmp 31, 9-cyclopropyl-6-fluoro-3-hydroxyl-8-methoxy-7-((R)-3-((S)-1-(methylamino)ethyl)pyrrolidin-1-yl)-4-oxo-4,9-dihydrothieno [2,3-b]quinoline-2-carbonitrile], the minimum inhibitory concentration (MIC) in assay [1] is 0.03 µg/mL (≈ 0.0657 µM); in assay [2], 0.25 µg/mL (≈ 0.548 µM).
As to `COc1c(N2CC[C@@H](C(C)(C)N)C2)c(F)cc2c(=O)c3c(O)c(C(N)=O)sc3n(C3CC3)c12` [Cmp 32, (R)-7-(3-(2-aminopropan-2-yl)pyrrolidin-1-yl)-9-cyclopropyl-6-fluoro-3-hydroxyl-8-methoxy-4-oxo-4,9-dihydrothieno [2,3-b]quinoline-2-carboxamide], the MIC in assay [1] turned out to be 0.13 µg/mL (≈ 0.274 µM); in assay [2] it was 0.5 µg/mL (≈ 1.05 µM).
With `COc1c(N2CC[C@@H]([C@H](C)N(C)C)C2)c(F)cc2c(=O)c3c(O)c(C#N)sc3n(C3CC3)c12` [Cmp 33, 9-cyclopropyl-7-((R)-3-((S)-1-(dimethylamino)ethyl)pyrrolidin-1-yl)-6-fluoro-3-hydroxyl-8-methoxy-4-oxo-4,9-dihydrothieno [2,3-b]quinoline-2-carbonitrile], the minimal inhibitory concentration (MIC) is 0.06 µg/mL (≈ 0.128 µM) in assay [1] and 0.5 µg/mL (≈ 1.06 µM) in assay [2].
Turning to `CNC(C)(C)[C@@H]1CCN(c2c(F)cc3c(=O)c4c(O)c(C#N)sc4n(C4CC4)c3c2OC)C1` [Cmp 34, (R)-9-cyclopropyl-6-fluoro-3-hydroxyl-8-methoxy-7-(3-(2-(methylamino)propan-2-yl)pyrrolidin-1-yl)-4-oxo-4,9-dihydrothieno[2,3-b]quinoline-2-carbonitrile], the MIC is 0.06 µg/mL (≈ 0.128 µM) in assay [1] and 0.5 µg/mL (≈ 1.06 µM) in assay [2].
Turning to `CCNC(C)(C)[C@@H]1CCN(c2c(F)cc3c(=O)c4c(O)c(C#N)sc4n(C4CC4)c3c2OC)C1` [Cmp 35, (R)-9-cyclopropyl-7-(3-(2-(ethylamino)propan-2-yl)pyrrolidin-1-yl)-6-fluoro-3-hydroxyl-8-methoxy-4-oxo-4,9-dihydrothieno [2,3-b]quinoline-2-carbonitrile], the figures for the MIC in assay [1] and in assay [2] were 0.06 µg/mL (≈ 0.124 µM) and 0.5 µg/mL (≈ 1.03 µM), respectively.
For the compound `COc1c(N2CC[C@@H](C(C)(C)N(C)C)C2)c(F)cc2c(=O)c3c(O)c(C#N)sc3n(C3CC3)c12` [Cmp 36, (R)-9-cyclopropyl-7-(3-(2-(dimethylamino)propan-2-yl)pyrrolidin-1-yl)-6-fluoro-3-hydroxyl-8-methoxy-4-oxo-4,9-dihydrothieno[2,3-b]quinoline-2-carbonitrile], the MIC in assay [1] was determined as 0.25 µg/mL (≈ 0.516 µM); in assay [2], 2 µg/mL (≈ 4.13 µM).
For `COc1c(N2CCCC(C(N)=O)C2)c(F)cc2c(=O)c3c(O)c(C#N)sc3n(C3CC3)c12` (stereo not shown) [Cmp 37, 1-(2-cyano-9-cyclopropyl-6-fluoro-3-hydroxyl-8-methoxy-4-oxo-4,9-dihydrothieno[2,3-b]quinolin-7-yl)piperidine-3-carboxamide], the results for the minimum inhibitory concentration (MIC) in assay [1] and in assay [2] were 0.03 µg/mL (≈ 0.0657 µM) and 0.25 µg/mL (≈ 0.548 µM), respectively.
Regarding `COc1c(N2C[C@@H]3CCCN[C@@H]3C2)c(F)cc2c(=O)c3c(O)c(C#N)sc3n(C3CC3)c12` [Cmp 38, 9-cyclopropyl-6-fluoro-3-hydroxyl-8-methoxy-4-oxo-7-((4aS,7aS)-tetrahydro-1H-pyrrolo[3,4-b]pyridin-6(2H,7H,7aH)-yl)-4,9-dihydrothieno[2,3-b]quinoline-2-carbonitrile], the figures for the MIC in assay [1] and in assay [2] were 0.5 µg/mL (≈ 1.1 µM) and 8 µg/mL (≈ 17.6 µM), respectively.
As for `CO/N=C1\CN(c2c(F)cc3c(=O)c4c(O)c(C#N)sc4n(C4CC4)c3c2OC)CC1CN` (stereo not shown) [Cmp 39, (Z)-7-(3-(aminomethyl)-4-(methoxyimino)pyrrolidin-1-yl)-9-cyclopropyl-6-fluoro-3-hydroxyl-8-methoxy-4-oxo-4,9-dihydrothieno[2,3-b]quinoline-2-carbonitrile], the values for the MIC in assay [1] and in assay [2] were 0.13 µg/mL (≈ 0.276 µM) and 1 µg/mL (≈ 2.12 µM), respectively.
For `COc1c(C2=CCNCC2)c(F)cc2c(=O)c3c(O)c(C#N)sc3n(C3CC3)c12` [Cmp 40], the results for the MIC in assay [1] and in assay [2] were 0.5 µg/mL (≈ 1.22 µM) and 4 µg/mL (≈ 9.72 µM), respectively.
The corresponding values for `COc1c(N2CC3CC2CN3)c(F)cc2c(=O)c3c(O)c(C#N)sc3n(C3CC3)c12` (stereo not shown) [Cmp 41, 7-(2,5-diazabicyclo[2.2.1]heptan-2-yl)-9-cyclopropyl-6-fluoro-3-hydroxyl-8-methoxy-4-oxo-4,9-dihydrothieno [2,3-b]quinoline-2-carbonitrile] are 0.13 µg/mL (≈ 0.305 µM) and 1 µg/mL (≈ 2.34 µM).
With `COc1c(N2C[C@H]3CNC[C@H]3C2)c(F)cc2c(=O)c3c(O)c(C#N)sc3n(C3CC3)c12` [Cmp 42, 9-cyclopropyl-6-fluoro-7-((3aR,6aS)-hexahydropyrrolo [3,4-c]pyrrol-2(1H)-yl)-3-hydroxyl-8-methoxy-4-oxo-4,9-dihydrothieno[2,3-b]quinoline-2-carbonitrile], the results for the MIC in assay [1] and in assay [2] were 0.25 µg/mL (≈ 0.568 µM) and 1 µg/mL (≈ 2.27 µM), respectively.
For the compound `COc1c(N2CCC(C(F)(F)F)CC2)c(F)cc2c(=O)c3c(n(C4CC4)c12)SC(C#N)C3=O` (stereo not shown) [Cmp 43, 9-cyclopropyl-6-fluoro-8-methoxy-3,4-dioxo-7-(4-(trifluoromethyl)piperidin-1-yl)-2,3,4,9-tetrahydrothieno [2,3-b]quinoline-2-carbonitrile], the MIC in assay [1] came to 1 µg/mL (≈ 2.08 µM); in assay [2] it was 8 µg/mL (≈ 16.6 µM).
For the compound `COc1c(N2CC[C@@H](c3ncn[nH]3)C2)c(F)cc2c(=O)c3c(n(C4CC4)c12)SC(C#N)C3=O` (stereo partly drawn) [Cmp 44, 7-((R)-3-(1H-1,2,4-triazol-5-yl)pyrrolidin-1-yl)-9-cyclopropyl-6-fluoro-8-methoxy-3,4-dioxo-2,3,4,9-tetrahydrothieno [2,3-b]quinoline-2-carbonitrile], the MIC amounted to 0.02 µg/mL (≈ 0.0429 µM) in assay [1] and 0.13 µg/mL (≈ 0.279 µM) in assay [2].
Regarding `COc1c(N2CCC(C(N)=O)CC2)c(F)cc2c(=O)c3c(n(C4CC4)c12)SC(C#N)C3=O` (stereo not shown) [Cmp 45, 1-(2-cyano-9-cyclopropyl-6-fluoro-8-methoxy-3,4-dioxo-2,3,4,9-tetrahydrothieno[2,3-b]quinolin-7-yl)piperidine-4-carboxamide], the results for the MIC in assay [1] and in assay [2] were 0.03 µg/mL (≈ 0.0657 µM) and 0.5 µg/mL (≈ 1.1 µM), respectively.
The corresponding values for `COc1c(N2CCC[C@H]2C(N)=O)c(F)cc2c(=O)c3c(n(C4CC4)c12)SC(C#N)C3=O` (stereo partly drawn) [Cmp 46, (2S)-1-(2-cyano-9-cyclopropyl-6-fluoro-8-methoxy-3,4-dioxo-2,3,4,9-tetrahydrothieno[2,3-b]quinolin-7-yl)pyrrolidine-2-carboxamide] are 4 µg/mL (≈ 9.04 µM) and 64 µg/mL (≈ 145 µM).
`C[C@H]1COc2c(N3CCNCC3)c(F)cc3c(=O)c4c(n1c23)SC(C#N)C4=O` (stereo partly drawn) [Cmp 47, (1S)-5-fluoro-1-methyl-7,8-dioxo-4-(piperazin-1-yl)-2,7,8,9-tetrahydro-1H-[1,4]oxazino[2,3,4-ij]thieno[2,3-b] quinoline-9-carbonitrile]: the minimum inhibitory concentration (MIC) in assay [1] was found to be 1 µg/mL (≈ 2.5 µM); in assay [2] it was 4 µg/mL (≈ 9.99 µM).

These data come from US8173636B2, “Hydroxylthienoquinolones and related compounds as anti-infective agents” (Achillion Pharmaceuticals, Inc., priority 2009, dated 2012).
